Earlier results in paper PMC7830118, “Synthesis and Biological Evaluation of ^99mTc(I) Tricarbonyl Complexes Dual-Targeted at Tumoral Mitochondria” (Molecules, 2021).

Tested on: mitochondria fraction isolated from rat myocardium
Method: The ^99mTc-BBN complex accumulates to a low extent (0.19 to 0.24%) in mitochondria when compared with the TPP-containing complexes. […] The highest mitochondrial uptake (0.84 ± 0.06%) was found for the dual-targeted complex, ^99mTc-TPP-BBN, after 2 h of incubation. The measured uptakes are relative values that were obtained in the same manner and, therefore, reflect the mitotropic properties of each complex. However, it is worthwhile to mention that in these ...

For `[99Tc].[C-]#[N+]CC(C)(C)OC.[C-]#[N+]CC(C)(C)OC.[C-]#[N+]CC(C)(C)OC.[C-]#[N+]CC(C)(C)OC.[C-]#[N+]CC(C)(C)OC.[C-]#[N+]CC(C)(C)OC` [^99mTc-MIBI], the “Mitochondrial uptake after correction for mitochondria in other cellular fractions” value (correction with CCCP and malate dehydrogenase activity) is listed as 68% and the “Measured mitochondrial uptake (accumulation in the mitochondria fraction), uncorrected” value (mitochondria fraction isolated from rat myocardium) is listed as 2.38%.
